Test results: patent publication US4874749A, “4"-Deoxy-4-N-methylamino avermectin Bla/Blb” (Merck & Co., Inc., priority 1987, dated 1989)

Key:
Type in all cases: in vivo
southern armyworm = experiment: LD90 test against southern armyworm (micrograms/GWT); conditions: GWT = Gram Weight of the Test insect
Text: (§1) For example, tests have been carried out in which the instant compound was compared with avermectin Bla/Blb (avermectin the starting material for the instant compound) and 4"-deoxy-4"-amino avermectin Bla/Blb. […] Expressed another way, 4"-deoxy-4"-amino avermectin Bla/Blb was 60% effective at 0.5 micrograms/GWT against southern armyworm while 4"-deoxy-4"-epi-N-methylamino avermectin Bla/Blb was 90% effective at 0.125 micrograms/GWT against the same parasite.

tobacco budworm = experiment: LD90 test against tobacco budworm (micrograms/GWT); conditions: GWT = Gram Weight of the Test insect
Text: as §1

Daphnia magna = experiment: Acute toxicity to Daphnia magna
Protocol: In one test of the instant compound (see Example 5) and closely related avermectin compounds against Daphnia magna, described as a 48 hour LC50 test, that is, the concentration of compound which is fatal to 50% of Daphnia magna over a 48 hour period, it was observed that avermectin Bla/Blb has an LC50 of 300 ppt (parts per trillion); and 4"-deoxy-4"-amino avermectin Bla/Blb has an LC50 of 600 ppt.
Ten Dahpnia magna (first instar less than 24 hours old) were placed in a 250 ml glass beaker containing 200 ml of an aqueous solution of the test compounds in concentrations from 1.0 to 10 microgram/liter (ppb). The test compounds were dissolved in a small volume of acetone for dilution with water. The solvent control contained 0.010 ml of acetone which is equivalent to the highest test concentration. A control and solvent control was added to the experiment which was conducted in two replicates. All concentrations were observed once at 24 and 48 hours for mortality and abnormal effects such as surfacing, clumping of the daphnids together and daphnids lying on the bottom of the beakers.

[1] = system: Spodoptera eridania larvae; experiment: Foliar ingestion toxicity study against Spodoptera eridania larvae
[2] = system: Heliothis virescens larvae; experiment: Foliar ingestion toxicity study against Heliothis virescens larvae
Heliothis zea larvae [3] = experiment: Foliar ingestion toxicity against Heliothis zea larvae
[4] = system: Spodoptera eridania larvae; experiment: Contact toxicity study against Spodoptera eridania larvae; conditions: 96 hours, in microgram per gram body weight (BTI 159)
Protocol: In a contact toxicity study against Spodoptera eridania larvae 4"-deoxy-4"-epimethylamino avermectin Bla/Blb was 4 times more toxic than 4"-deoxy-4"-epiamino avermectin Bla/Blb as measured at 96 hours in microgram per gram body weight. (BTI 159).

[5] = system: Heliothis virescens larvae; experiment: Contact toxicity study against Heliothis virescens larvae
Heliothis zea larvae [6] = experiment: Contact toxicity study against Heliothis zea larvae; conditions: 96 hours
[7] = system: Rainbow Trout (Salmo gairdneri); experiment: Acute toxicity to Rainbow Trout, static fish bioassay
Protocol: The static fish bioassay was conducted in five gallon glass vessels containing 15 liters of soft reconstituted water composed of the following compounds in the amounts stated per liter of deionized water:
This reconstituted water was prepared to yield a total hardness of 40-48 mg/l as CaCO3, a total alkalinity of 20-30 mg/l as CaCO3 and an initial pH of 7.2 to 7.6. The 0-hour measured control water parameters of this dilution water were dissolved oxygen 9.7 mg/l and pH 7.4.
The test vessels were kept in a water bath at 12° C. The test fish were acclimated to the dilution water and test temperature and held without food for 48-96 hours prior to testing.
Based on the results of preliminary testing, six concentrations of the test compound with ten fish per concentration were selected for the definitive bioassay. The definitive test concentrations were obtained by transferring appropriate aliquots of a working standard directly to the test chambers. The working standard was prepared in dimethylformamide (DMF). Also included was a dilution water control and a solvent control chamber.
The fish were added to the test chambers by random assignment within 30 minutes after addition of test material. All test organisms were observed once every 24 hours for mortality and abnormal (sub-lethal) effects. any dead individuals were removed from the test chambers after each 24-hour observation. The LC50 statistic and its 95 percent confidence limits were calculated by employing a computerized standard program.

[8] = system: Bluegill Sunfish (Lepomis macrochirus); experiment: Acute toxicity to Bluegill Sunfish
Protocol: The same test procedure was used as described in example 6, except that Bluegill Sunfish were used and that the test vessels were kept in a water bath at 22° C.

[9] = 48 hour, ppt = parts per trillion
[10] = 0.04 microgram/gram body weight
[11] = 24 hr, nominal concentration 0.056 mg/l
[12] = 24 hr, nominal concentration 0.10 mg/l
[13] = 24 hr, nominal concentration 0.18 mg/l
[14] = 24 hr, nominal concentration 0.32 mg/l
[15] = 24 hr, nominal concentration 0.56 mg/l
[16] = 24 hr, nominal concentration 1.0 mg/l
[17] = 48 hr, nominal concentration 0.056 mg/l
[18] = 48 hr, nominal concentration 0.10 mg/l
[19] = 48 hr, nominal concentration 0.18 mg/l
[20] = 48 hr, nominal concentration 0.32 mg/l
[21] = 48 hr, nominal concentration 0.56 mg/l
[22] = 48 hr, nominal concentration 1.0 mg/l
[23] = 96 hr, nominal concentration 0.056 mg/l
[24] = 96 hr, nominal concentration 0.10 mg/l
[25] = 96 hr, nominal concentration 0.18 mg/l
[26] = 96 hr, nominal concentration 0.32 mg/l
[27] = 96 hr, nominal concentration 0.56 mg/l
[28] = 96 hr, nominal concentration 1.0 mg/l

“4"-deoxy-4"-amino avermectin Bla/Blb [reference compound]” was tested. Which “LD90 (Lethal Dose for 90% of the insects)” value (southern armyworm) did it give?
The value was 3.4 micrograms/GWT.

And the “LD90 (Lethal Dose for 90% of the insects)” value (tobacco budworm)?
The value was 1.3 micrograms/GWT.

And the LC50 (Daphnia magna; [9])?
Its LC50 is 600 ppt.

What about the LC50 (Daphnia magna; 48 hours) of the same substance?
Its LC50 is 0.6 micrograms/l.

“4"-Deoxy-4"-epi-methylaminoavermectin Bla/Blb” was tested. Which “LD90 (Lethal Dose for 90% of the insects)” value (southern armyworm) did it give?
Its value is 0.542 micrograms/GWT.

What about the “LD90 (Lethal Dose for 90% of the insects)” value (tobacco budworm) of the same substance?
Its value is 0.4 micrograms/GWT.

What about the “Percent Mortality” value (Daphnia magna; 24 hr, nominal concentration 1.0 microgram/l) of the same substance?
The value was 0%.

What about the “Percent Mortality” value (Daphnia magna; 24 hr, nominal concentration 1.8 microgram/l) of the same substance?
The value was 0%.

And the “Percent Mortality” value (Daphnia magna; 24 hr, nominal concentration 3.2 microgram/l)?
Its value is 20%.

And the “Percent Mortality” value (Daphnia magna; 24 hr, nominal concentration 5.6 microgram/l)?
Its value is 30%.

What about the “Percent Mortality” value (Daphnia magna; 24 hr, nominal concentration 10.0 microgram/l) of the same substance?
The value was 90%.

What about the “times less toxic than the 4"-amino compound” value (Daphnia magna; 48 hour LC50, vs 4"-deoxy-4"-amino avermectin Bla/Blb) of the same substance?
The value was ~5 times.

And the “times less toxic than the avermectin Bla/Blb compound” value (Daphnia magna; 48 hour LC50, vs avermectin Bla/Blb)?
The value was ~10 times.

And the LC50 (Daphnia magna; [9])?
The LC50 was 2900 ppt.

What about the LC50 (Daphnia magna; 48 hours) of the same substance?
The LC50 was 2.9 micrograms/l.

And the “Percent Mortality” value (Daphnia magna; 48 hr, nominal concentration 1.0 microgram/l)?
Its value is 0%.

What about the “Percent Mortality” value (Daphnia magna; 48 hr, nominal concentration 1.8 microgram/l) of the same substance?
The value was 5%.

What about the “Percent Mortality” value (Daphnia magna; 48 hr, nominal concentration 3.2 microgram/l) of the same substance?
The value was 70%.

And the “Percent Mortality” value (Daphnia magna; 48 hr, nominal concentration 5.6 microgram/l)?
Its value is 95%.

What about the “Percent Mortality” value (Daphnia magna; 48 hr, nominal concentration 10.0 microgram/l) of the same substance?
Its value is 100%.

What about the “LC90 (lethal concentration for 90% of the insects)” value [1] of the same substance?
Its value is 0.005 ppm.

What about the “times more toxic than avermectin Bla/Blb (LC90)” value [1] of the same substance?
Its value is 1166 times.

And the LC90 [2]?
The LC90 was 0.003 ppm.

And the “times more toxic than avermectin Bla/Blb (LC90)” value [2]?
Its value is 43 times.

And the LC90 (Heliothis zea larvae [3])?
The LC90 was 0.002 ppm.

What about the “times more toxic than avermectin Bla/Blb (LC90)” value (Heliothis zea larvae [3]) of the same substance?
Its value is 105 times.

What about the “times more toxic than 4"-deoxy-4"-epiamino avermectin Bla/Blb” value [4] of the same substance?
Its value is 4 times.

And the mortality ([5]; 0.1 microgram/g body weight)?
Its mortality is 25%.

What about the mortality ([5]; 0.4 microgram/g body weight) of the same substance?
Its mortality is 100%.

What about the mortality (Heliothis zea larvae [6]; [10]) of the same substance?
Its mortality is 20%.

And the mortality (Heliothis zea larvae [6]; 0.4 microgram/g body weight)?
Its mortality is 100%.

What about the mortality (Heliothis zea larvae [6]; 4.0 microgram/gram body weight) of the same substance?
The mortality was 100%.

And the LC50 ([7]; 24 hours)?
The LC50 was > 1.0 milligrams/liter (ppm).

And the “Percent Mortality” value [7, 11]?
The value was 0%.

And the “Percent Mortality” value [7, 12]?
Its value is 0%.

And the “Percent Mortality” value [7, 13]?
Its value is 0%.

What about the “Percent Mortality” value [7, 14] of the same substance?
The value was 0%.

What about the “Percent Mortality” value [7, 15] of the same substance?
Its value is 0%.

And the “Percent Mortality” value [7, 16]?
Its value is 0%.

What about the LC50 ([7]; 48 hours) of the same substance?
The LC50 was > 1.0 milligrams/liter (ppm).

And the “Percent Mortality” value [7, 17]?
Its value is 0%.

What about the “Percent Mortality” value [7, 18] of the same substance?
The value was 0%.

And the “Percent Mortality” value [7, 19]?
Its value is 0%.

What about the “Percent Mortality” value [7, 20] of the same substance?
The value was 0%.

What about the “Percent Mortality” value [7, 21] of the same substance?
The value was 0%.

What about the “Percent Mortality” value [7, 22] of the same substance?
The value was 0%.

And the LC50 ([7]; 96 hours)?
Its LC50 is 0.67 milligrams/liter (ppm).

What about the “Percent Mortality” value [7, 23] of the same substance?
The value was 0%.

What about the “Percent Mortality” value [7, 24] of the same substance?
Its value is 0%.

What about the “Percent Mortality” value [7, 25] of the same substance?
Its value is 0%.

And the “Percent Mortality” value [7, 26]?
The value was 0%.

And the “Percent Mortality” value [7, 27]?
Its value is 20%.

And the “Percent Mortality” value [7, 28]?
The value was 100%.

What about the LC50 ([8]; 24 hours) of the same substance?
The LC50 was 0.75 milligrams/liter (ppm).

And the “Percent Mortality” value [8, 11]?
The value was 0%.

And the “Percent Mortality” value [8, 12]?
The value was 0%.

And the “Percent Mortality” value [8, 13]?
Its value is 0%.

And the “Percent Mortality” value [8, 14]?
Its value is 0%.

What about the “Percent Mortality” value [8, 15] of the same substance?
The value was 0%.

And the “Percent Mortality” value [8, 16]?
Its value is 100%.

And the LC50 ([8]; 48 hours)?
Its LC50 is 0.45 milligrams/liter (ppm).

What about the “Percent Mortality” value [8, 17] of the same substance?
The value was 0%.

And the “Percent Mortality” value [8, 18]?
Its value is 0%.

What about the “Percent Mortality” value [8, 19] of the same substance?
The value was 0%.

And the “Percent Mortality” value [8, 20]?
The value was 0%.

And the “Percent Mortality” value [8, 21]?
The value was 90%.

And the “Percent Mortality” value [8, 22]?
The value was 100%.

And the LC50 ([8]; 96 hours)?
Its LC50 is 0.24 milligrams/liter (ppm).

And the “Percent Mortality” value [8, 23]?
Its value is 0%.

And the “Percent Mortality” value [8, 24]?
Its value is 0%.

And the “Percent Mortality” value [8, 25]?
Its value is 0%.

What about the “Percent Mortality” value [8, 26] of the same substance?
The value was 100%.

What about the “Percent Mortality” value [8, 27] of the same substance?
Its value is 100%.

What about the “Percent Mortality” value [8, 28] of the same substance?
The value was 100%.

For avermectin Bla/Blb [reference compound], which “LD90 (Lethal Dose for 90% of the insects)” value (southern armyworm) is on record?
The value was > 34.0 micrograms/GWT.

And the “LD90 (Lethal Dose for 90% of the insects)” value (tobacco budworm)?
The value was > 1.3 micrograms/GWT.

And the LC50 (Daphnia magna; [9])?
Its LC50 is 300 ppt.

And the LC50 (Daphnia magna; 48 hours)?
The LC50 was 0.34 micrograms/l.

What about the “LC90 (lethal concentration for 90% of the insects)” value [1] of the same substance?
The value was 5.83 ppm.

What about the LC90 [2] of the same substance?
Its LC90 is 0.128 ppm.

What about the LC90 (Heliothis zea larvae [3]) of the same substance?
Its LC90 is 0.21 ppm.

What about the LC50 ([7]; 24 hours) of the same substance?
Its LC50 is > 0.006 milligrams/liter (ppm).

And the LC50 ([7]; 48 hours)?
Its LC50 is 0.0046 milligrams/liter (ppm).

And the LC50 ([7]; 96 hours)?
The LC50 was 0.0032 milligrams/liter (ppm).

What about the LC50 ([8]; 24 hours) of the same substance?
The LC50 was 0.029 milligrams/liter (ppm).

And the LC50 ([8]; 48 hours)?
The LC50 was 0.019 milligrams/liter (ppm).

What about the LC50 ([8]; 96 hours) of the same substance?
Its LC50 is 0.0096 milligrams/liter (ppm).

What does the source list for “4"-deoxy-4"-epiamino avermectin Bla/Blb [reference compound]”?
mortality ([5]; 0.1 microgram/g body weight): 5%; mortality ([5]; 0.4 microgram/g body weight): 30%; mortality (Heliothis zea larvae [6]; [10]): 0%; mortality (Heliothis zea larvae [6]; 0.4 microgram/g body weight): 90%; mortality (Heliothis zea larvae [6]; 4.0 microgram/gram body weight): 100%
